In patent US5684151A, “1-arylsulphonyl, arylcarbonyl and 1-arylphosphonyl-3-phenyl-1,4,5,6-tetrahydropyridazines” (priority 1995, dated 1997):
Read-outs that look alike come from different tables or passages of the source.

How the values were obtained:
[1] = tested on: Human T47D breast carcinoma cells; assay: Ex vivo progestational test (T47D proliferation); type: cell-based; details: SC200, 3H-thymidine incorporation
Method: The progestational activity of the compounds was accessed by their ability to stimulate proliferation of human breast carcinoma cells. Proliferation was measured as the ability to stimulate ^3 H-thymidine incorporation into these cells in vitro. Human T47D breast carcinoma cells (American Type Tissue Collection #133-HTB) were maintained in media consisting or RPMI 1640 supplemented with 10% fetal bovine serum, 10 ug/ml insulin, 10 U/ml pennicillin, 100 ug/ml streptomycin, and 2 mM L-glutamine. Monolayer cell cultures were trypsinized and washed in assay media consisting of phenol red-free RPMI 1640 supplemented with 5% charcoal-stripped, fetal bovine serum, and the other ingredients listed above. Cells were then plated in a 96-well plate. After a 48-hour incubation period at 37° C., the conditioned media was removed and replaced with fresh media containing test compounds in DMSO (0.1% DMSO final concentration). The cell cultures were incubated for 18 to 20 hours at 37° C. ^3 H-thymidine was then added to each well and the cell cultures were incubated at 37° C. for an additional 4 hours. Labelling was stopped by addition of un labelled thymidine. The cultures were washed twice, trypsinized and then harvested onto a filter mat. Incorporated ^3 -H-thymidine was measured by liquid scintillation counting. Data was expressed as a percent stimulation above control level which was set at 100%. An SC200 value was calculated as the concentration of test material needed to stimulate ^3 H-thymidine incorporation 200% of control.
Aspects of the application of the procedure used are described in the following: C. Christensen, D. Gunter, D. Saunders and V. Malviya, Gynecol. Oncol., 28, 25 (1987); J. Puzas, R. Drivdahl, G. Howard and D. Baylink, Proc. Soc. Exp. Biol. Med., 166, 113 (1981); and I. Keydar, L. Chen, S. Karby, F. Weiss, J. Delarea, M. Raduy, S. Chaitcik and H. Brenner, Eur. J. Cancer, 15, 659 (1979)

[2] = biological target: T1, progestin receptor from rabbit uterus (Oryctolagus cuniculus, UniProt P06186); assay: Progestin receptor binding (3H-R5020 displacement); details: rabbit uterine cytosol, 4° C., 18 h, read-out: IC50: Binding affinity for the progestin receptor from rabbit uterus
T1 construct: Cytosolic progestin receptor were obtained by mixing rabbit uterine tissue with a Tris buffer; from tissue; host or cells: rabbit uterus cytosol
Outline: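 Rabbit uterine cytosol in Tris buffer pH 7.4 with EDTA, DTT and molybdate was incubated with 3H-R5020 and test compound (5% DMSO final) at 4 °C for about 18 h. Bound ligand was separated with dextran-coated charcoal and counted by scintillation; IC50 is 50% radioligand displacement, with nonspecific binding defined by excess unlabelled ligand.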

[3] = tested on: mouse (MC3T3-E1) and human (TE-85) osteoblast-line cells; type: cell-based
Outline: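 MC3T3-E1 or TE-85 cells were plated overnight in DMEM/25 mM HEPES/10% FBS and then preincubated 24 h in 0.1% FBS. Compounds were added for 20 h, followed by a 4 h pulse of 0.4 μCi ^3H-thymidine. Incorporated radioactivity served as the proliferation index, expressed as % of control (control = 100%).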

T1 sequence (P06186 whole entry): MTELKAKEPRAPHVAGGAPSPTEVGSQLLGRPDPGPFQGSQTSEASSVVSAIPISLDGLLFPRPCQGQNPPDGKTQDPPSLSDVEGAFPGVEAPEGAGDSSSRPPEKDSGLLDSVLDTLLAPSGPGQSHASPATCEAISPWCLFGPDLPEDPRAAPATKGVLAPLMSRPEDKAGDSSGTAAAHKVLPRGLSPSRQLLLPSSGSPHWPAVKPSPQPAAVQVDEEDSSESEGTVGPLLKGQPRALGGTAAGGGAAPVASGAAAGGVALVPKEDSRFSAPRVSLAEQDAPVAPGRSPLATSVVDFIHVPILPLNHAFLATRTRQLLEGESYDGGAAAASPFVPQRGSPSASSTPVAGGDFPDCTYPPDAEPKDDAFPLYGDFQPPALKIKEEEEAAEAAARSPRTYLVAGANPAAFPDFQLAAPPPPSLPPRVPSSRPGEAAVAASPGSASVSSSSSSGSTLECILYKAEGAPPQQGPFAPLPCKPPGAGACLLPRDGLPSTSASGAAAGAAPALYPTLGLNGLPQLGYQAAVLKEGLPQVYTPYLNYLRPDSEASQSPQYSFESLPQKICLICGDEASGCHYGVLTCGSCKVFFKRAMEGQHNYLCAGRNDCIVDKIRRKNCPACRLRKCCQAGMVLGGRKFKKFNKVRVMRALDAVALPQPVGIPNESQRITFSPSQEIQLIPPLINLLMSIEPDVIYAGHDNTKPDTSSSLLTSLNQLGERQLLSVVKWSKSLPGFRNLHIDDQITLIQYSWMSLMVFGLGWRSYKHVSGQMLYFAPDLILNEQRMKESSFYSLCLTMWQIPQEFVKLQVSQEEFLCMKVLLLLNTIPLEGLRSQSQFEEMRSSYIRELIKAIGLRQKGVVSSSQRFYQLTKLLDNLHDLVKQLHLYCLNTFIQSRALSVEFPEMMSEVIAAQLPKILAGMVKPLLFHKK

With CCCCc1ccc(C2=NN(S(=O)(=O)c3ccc(Cl)cc3)CCC2)cc1 [Compound 73] the “T47D: Concentration to elicit a 200% increase in T47D Human breast cell proliferation” value [1] was 10000 and the IC50 [2] was 10 µM.

With O=S(=O)(c1cc(Cl)ccc1Cl)N1CCCC(c2ccc(Cl)c(C(F)(F)F)c2)=N1 [Compound 79, 3-(4-chloro-3-trifluoromethylphenyl)-1-(2,5-dichlorobenzenesulphonyl)-1,4,5,6-tetrahydropyridazine] the “T47D: Concentration to elicit a 200% increase in T47D Human breast cell proliferation” value [1] was 10000 and the IC50 [2] was 0.0009 µM.

With O=S(=O)(c1ccccc1)N1CCCC(c2cccc(Cl)c2)=N1 [Compound 95] the “T47D: Concentration to elicit a 200% increase in T47D Human breast cell proliferation” value [1] was 10000 and the IC50 [2] was 0.0102 µM.

O=S(=O)(c1cccc2ccccc12)N1CCCC(c2ccc(Cl)cc2)=N1 [Compound 15] was tested, and the “T47D: Concentration to elicit a 200% increase in T47D Human breast cell proliferation” value [1] was 10000, the “Osteoblast Cell Proliferation, 3H-thymidine incorporation vs control (100%)” value (shortened to “Osteoblast Cell Proliferation … (100%)”) ([3]; 10^-6) was 94% and the “Osteoblast Cell Proliferation … (100%)” value ([3]; 10^-7) was 108%. The “Osteoblast Cell Proliferation … (100%)” value ([3]; 10^-8) was 114%, the “Osteoblast Cell Proliferation … (100%)” value ([3]; 10^-9) was 123% and the “Osteoblast Cell Proliferation … (100%)” value ([3]; 10^-10) was 123%.

With CCCCc1ccc(C2=NN(S(=O)(=O)c3cc(Cl)ccc3Cl)CCC2)cc1 [Compound 69] the “T47D: Concentration to elicit a 200% increase in T47D Human breast cell proliferation” value [1] was 10000 and the IC50 [2] was 10 µM.

For COP(=O)(c1ccccc1)N1CCCC(c2ccc(Cl)c(C(F)(F)F)c2)=N1 (centres unmarked) [Compound 261], the IC50 [2] was 0.131 µM, the “Osteoblast Cell Proliferation … (100%)” value ([3]; 10^-6) was 98% and the “Osteoblast Cell Proliferation … (100%)” value ([3]; 10^-7) was 105%. For the same molecule, the “Osteoblast Cell Proliferation … (100%)” value ([3]; 10^-8) was 95%, the “Osteoblast Cell Proliferation … (100%)” value ([3]; 10^-9) was 100% and the “Osteoblast Cell Proliferation … (100%)” value ([3]; 10^-10) was 111%.

Cc1ccc(S(=O)(=O)N2N=C(c3ccccc3)CC3C4C5C=CC(C5)C4CC32)cc1 (centres unmarked) [Compound 157, 1,4,4a,9a-Tetrahydro-1-(4-methylbenzenesulfonyl)-3-phenyl-bicyclo[2.2.1]hept-7-enyl[5.6-a]cyclopenta-[1.2-e]pyridazine] was tested, and the IC50 [2] was 0.75 µM, the “Osteoblast Cell Proliferation … (100%)” value ([3]; 10^-6) was 107% and the “Osteoblast Cell Proliferation … (100%)” value ([3]; 10^-7) was 108%. For the same molecule, the “Osteoblast Cell Proliferation … (100%)” value ([3]; 10^-8) was 113%, the “Osteoblast Cell Proliferation … (100%)” value ([3]; 10^-9) was 111% and the “Osteoblast Cell Proliferation … (100%)” value ([3]; 10^-10) was 128%.

COc1ccc(C2=NN(C(=O)c3ccc(C(C)(C)C)cc3)CCC2)cc1 [Compound 201] was tested, and the IC50 [2] was 100 µM, the “Osteoblast Cell Proliferation … (100%)” value ([3]; 10^-6) was 89% and the “Osteoblast Cell Proliferation … (100%)” value ([3]; 10^-7) was 117%. For the same molecule, the “Osteoblast Cell Proliferation … (100%)” value ([3]; 10^-8) was 91%, the “Osteoblast Cell Proliferation … (100%)” value ([3]; 10^-9) was 69% and the “Osteoblast Cell Proliferation … (100%)” value ([3]; 10^-10) was 52%.

With O=C(c1ccc(Br)cc1)N1CCCC(c2ccc(Cl)cc2)=N1 [Compound 198] the IC50 [2] was 10 µM, the “Osteoblast Cell Proliferation … (100%)” value ([3]; 10^-6) was 94% and the “Osteoblast Cell Proliferation … (100%)” value ([3]; 10^-7) was 97%. For the same molecule, the “Osteoblast Cell Proliferation … (100%)” value ([3]; 10^-8) was 112%, the “Osteoblast Cell Proliferation … (100%)” value ([3]; 10^-9) was 99% and the “Osteoblast Cell Proliferation … (100%)” value ([3]; 10^-10) was 85%.

For COc1ccc(C(=O)N2CCCC(c3ccccc3)=N2)cc1 [Compound 183], the IC50 [2] was 100 µM, the “Osteoblast Cell Proliferation … (100%)” value ([3]; 10^-6) was 88% and the “Osteoblast Cell Proliferation … (100%)” value ([3]; 10^-7) was 133%. For the same molecule, the “Osteoblast Cell Proliferation … (100%)” value ([3]; 10^-8) was 131%, the “Osteoblast Cell Proliferation … (100%)” value ([3]; 10^-9) was 136% and the “Osteoblast Cell Proliferation … (100%)” value ([3]; 10^-10) was 135%.

For COc1ccc(C(=O)N2CCCC(c3ccc(Cl)cc3)=N2)cc1 [Compound 194], the IC50 [2] was 100 µM, the “Osteoblast Cell Proliferation … (100%)” value ([3]; 10^-6) was 93% and the “Osteoblast Cell Proliferation … (100%)” value ([3]; 10^-7) was 130%. The “Osteoblast Cell Proliferation … (100%)” value ([3]; 10^-8) was 136%, the “Osteoblast Cell Proliferation … (100%)” value ([3]; 10^-9) was 138% and the “Osteoblast Cell Proliferation … (100%)” value ([3]; 10^-10) was 144%.

For COC12CCCCC1CC(c1ccccc1)=NN2S(=O)(=O)c1ccc(C)cc1 (centres unmarked) [Compound 159, 1,4,4a,5,6,7,8,8a-Octahydro-8a-methoxy-1-(4-methyl-benzenesulfonyl)-3-phenyl-1,2-diazanapthalene], the IC50 [2] was 1.38 µM, the “Osteoblast Cell Proliferation … (100%)” value ([3]; 10^-6) was 97% and the “Osteoblast Cell Proliferation … (100%)” value ([3]; 10^-7) was 100%. The “Osteoblast Cell Proliferation … (100%)” value ([3]; 10^-8) was 91%, the “Osteoblast Cell Proliferation … (100%)” value ([3]; 10^-9) was 97% and the “Osteoblast Cell Proliferation … (100%)” value ([3]; 10^-10) was 105%.

In the case of O=S(=O)(c1ccccc1)N1CCCC(c2ccc(-c3ccccc3)cc2)=N1 [Compound 86], the IC50 [2] is reported as 0.228 µM, the “Osteoblast Cell Proliferation … (100%)” value ([3]; 10^-6) is reported as 100% and the “Osteoblast Cell Proliferation … (100%)” value ([3]; 10^-7) is reported as 114%. For the same molecule, the “Osteoblast Cell Proliferation … (100%)” value ([3]; 10^-8) was 94%, the “Osteoblast Cell Proliferation … (100%)” value ([3]; 10^-9) was 103% and the “Osteoblast Cell Proliferation … (100%)” value ([3]; 10^-10) was 101%.

For COc1ccc(C2=NN(C(=O)c3ccc(Cl)c(Cl)c3)CCC2)cc1 [Compound 189], the IC50 [2] was 100 µM, the “Osteoblast Cell Proliferation … (100%)” value ([3]; 10^-6) was 89% and the “Osteoblast Cell Proliferation … (100%)” value ([3]; 10^-7) was 112%. The “Osteoblast Cell Proliferation … (100%)” value ([3]; 10^-8) was 98%, the “Osteoblast Cell Proliferation … (100%)” value ([3]; 10^-9) was 122% and the “Osteoblast Cell Proliferation … (100%)” value ([3]; 10^-10) was 128%.

O=S(=O)(c1c(F)c(F)c(F)c(F)c1F)N1CCCC(c2ccc(F)cc2)=N1 [Compound 152, 3-(4-Fluorophenyl)-1-(pentafluorobenzenesulfonyl)-1,4,5,6-tetrahydropyridazine] was tested, and the IC50 [2] was 0.175 µM, the “Osteoblast Cell Proliferation … (100%)” value ([3]; 10^-6) was 87% and the “Osteoblast Cell Proliferation … (100%)” value ([3]; 10^-7) was 123%. For the same molecule, the “Osteoblast Cell Proliferation … (100%)” value ([3]; 10^-8) was 124%, the “Osteoblast Cell Proliferation … (100%)” value ([3]; 10^-9) was 149% and the “Osteoblast Cell Proliferation … (100%)” value ([3]; 10^-10) was 161%.

COC(=O)c1ccccc1S(=O)(=O)N1CCCC(c2ccc(Cl)c(Cl)c2)=N1 [Compound 47] was tested, and the IC50 [2] was 0.0201 µM, the “Osteoblast Cell Proliferation … (100%)” value ([3]; 10^-6) was 109% and the “Osteoblast Cell Proliferation … (100%)” value ([3]; 10^-7) was 112%. The “Osteoblast Cell Proliferation … (100%)” value ([3]; 10^-8) was 113%, the “Osteoblast Cell Proliferation … (100%)” value ([3]; 10^-9) was 115% and the “Osteoblast Cell Proliferation … (100%)” value ([3]; 10^-10) was 123%.

COc1ccc(C2=NN(C(=O)c3ccc(Br)cc3)CCC2)cc1 [Compound 190] was tested, and the IC50 [2] was 100 µM, the “Osteoblast Cell Proliferation … (100%)” value ([3]; 10^-6) was 121% and the “Osteoblast Cell Proliferation … (100%)” value ([3]; 10^-7) was 135%. For the same molecule, the “Osteoblast Cell Proliferation … (100%)” value ([3]; 10^-8) was 130%, the “Osteoblast Cell Proliferation … (100%)” value ([3]; 10^-9) was 139% and the “Osteoblast Cell Proliferation … (100%)” value ([3]; 10^-10) was 158%.

In the case of O=S(=O)(c1cc(Cl)ccc1Cl)N1CCCC(c2ccc(Cl)cc2)=N1 [Compound 5], the IC50 [2] is reported as 0.0053 µM, the “Osteoblast Cell Proliferation … (100%)” value ([3]; 10^-6) is reported as 89% and the “Osteoblast Cell Proliferation … (100%)” value ([3]; 10^-7) is reported as 106%. For the same molecule, the “Osteoblast Cell Proliferation … (100%)” value ([3]; 10^-8) was 124%, the “Osteoblast Cell Proliferation … (100%)” value ([3]; 10^-9) was 108% and the “Osteoblast Cell Proliferation … (100%)” value ([3]; 10^-10) was 114%.
